{"source": "patent US20230210857A1", "about": "“RESPIRATORY STIMULANT PARENTERAL FORMULATIONS” (Enalare Therapeutics Inc., priority 2021, published 2023)", "key": {"[1]": {"test": "pKa and theoretical free base solubility", "type": "physicochemical"}, "[2]": {"test": "pH solubility study (100 mM citric acid, shaken overnight at room temperature, HPLC assay)", "type": "physicochemical", "description": "A pH solubility study was performed to assess the feasibility of formulating the active agent (N-(4,6-Bis-n-propylamino-[1,3,5]triazin-2-yl)-O,N-dimethyl-hydroxylamine) as a simple buffered solution at a reasonable pH for an IV formulation.\nMethodology: The active agent (N-(4,6-Bis-n-propyl amino-[1,3,5]triazin-2-yl)-O,N-dimethyl-hydroxylamine) and H2SO4 solution of concentration ˜107 mg/mL in 100 mM citric acid at pH 2.5 was prepared. About 150 μL aliquots of this solution were transferred into 6 separate glass HPLC vials. All the samples, including the solution at pH 2.5, were shaken overnight at room temperature using a gyratory shaker. After shaking, the samples were evaluated visually for the presence of precipitate and were then spin filtered through 0.45 μm syringe tip filters (4 mm diameter) at 3000 rpm for 20 min. The final pH values of the filtrates were measured. The filtrates were then diluted appropriately and analyzed for the active agent (N-(4,6-Bis-n-propylamino-[1,3,5]triazin-2-yl)-O,N-dimethyl-hydroxylamine). H2SO4 concentration using the HPLC assay.\nResults: The pH values of the samples prior to and after shaking overnight, appearance as well as concentrations of samples are shown in Table 12."}, "[3]": {"test": "Three-phase pharmacokinetics (PK) study in minipigs, single IV and IM doses", "settings": "male, Gottingen, minipig, in vivo; for AUC(0-inf): AUCINF; for AUC(0-t): AUClast; for half-life: T1/2", "description": "The study consisted of conducting a bioequivalence (BE) study in minipigs. Two formulations of a Compound having Formula (I) (N-(4,6-Bis-n-propylamino-[1,3,5]triazin-2-yl)-O,N-dimethyl-hydroxylamine) were tested in the study as follows:\nFor IV administration, minipigs (n=3) received a single IV bolus (1-2 minutes) administration of the Compound having Formula (I) (N-(4,6-Bis-n-propylamino-[1,3,5]triazin-2-yl)-O,N-dimethyl-hydroxylamine) via VAP (vascular access port) at the jugular vein. For IM administration, minipigs (n=3) received a single IM administration of Compound having Formula (I) (N-(4,6-Bis-n-propylamino-[1,3,5]triazin-2-yl)-O,N-dimethyl-hydroxylamine) via the lateral neck muscle (behind the ear). The animals were dosed before noon on dosing days. The routes allowed for the determination of pharmacokinetics of Compound having Formula (I) (N-(4,6-Bis-n-propylamino-[1,3,5]triazin-2-yl)-O,N-dimethyl-hydroxylamine) from IV and IM administration.\nA PK study was conducted in male Gottingen minipigs (n=3), which were administered in a single IV and subsequent IM doses using the dosing scheme outlined in Table 25. There was a minimum of 3 day washout period between dose events.\nThe mean dose for IV dose Group 1 was 4.79+/−0.012 mg/kg. The mean dose for IM dose Group 2 was 4.82+/−0.036 mg/kg. The mean dose for IM dose Group 3 was 4.79+/−0.033 mg/kg. All through groups nominal doses were 4.8 mg/kg. These does were based on the nominal concentrations of the Compound having Formula (I) (N-(4,6-Bis-n-propylamino-[1,3,5]triazin-2-yl)-O,N-dimethyl-hydroxylamine) in the dose formulations (purity, water, and salt content corrected).\nFor IV administration, minipigs (n=3) received a single IV bolus (1-2 minutes) administration of Compound having Formula (I) (N-(4,6-Bis-n-propylamino-[1,3,5]triazin-2-yl)-O,N-dimethyl-hydroxylamine) via a Vascular access port (VAP) in the jugular vein. For IM administration, minipigs (n=3) received a single IM administration of each IM formulation via the lateral neck muscle (behind the ear). For each dose event, blood samples were collected at 8 time points: 0.083, 0.167, 0.25, 0.5, 1, 2, 4 and 24 hours post dose. General observations were conducted twice-daily for any treatment-related effects/toxicity and/or tolerability. Table 26 includes the Plasma Concentration Descriptive Statistics of Compound having Formula (I) (N-(4,6-Bis-n-propylamino-[1,3,5]triazin-2-yl)-O,N-dimethyl-hydroxylamine). Table 27 illustrates the plasma concentration pharmacokinetic parameters of Compound having Formula (I) (N-(4,6-Bis-n-propylamino-[1,3,5]triazin-2-yl)-O,N-dimethyl-hydroxylamine).\nThe plasma concentration descriptive statistics of the compound having Formula (I) (N-(4,6-Bis-n-propyl amino-[1,3,5]triazin-2-yl)-O,N-dimethyl-hydroxyl amine) are presented in Table 28.\nThe T1/2 values were 3.0 hours for IV Group 1 and 3.2 hours and 2.7 hours for IM Groups 2 and 3, respectively.\nFor each dose level, Cmax was higher for IV dosing than for IM dosing whereas AUClast was higher for IM dosing than for IV dosing.\nThe IV and IM bioavailability of a Compound having Formula (I) (N-(4,6-Bis-n-propylamino-[1,3,5]triazin-2-yl)-O,N-dimethyl-hydroxylamine) is presented in Table 30.\nThe IV formulation single injection yielded higher Cmax and shorter time to Cmax(Tmax). […] From the present pharmacokinetic study, it is believed that IM Formulation 1 is a simple formulation with high solubility and shorter Tmax, while IM Formulation 2 has higher absorption in both rats and minipig."}, "[4]": {"settings": "iv, 4.8 mg/kg, Mean plasma concentration"}}, "data": [{"smiles": "CCCNc1nc(NCCC)nc(N(C)OC)n1", "note": "[active agent, N-(4,6-Bis-n-propylamino-[1,3,5]triazin-2-yl)-O,N-dimethyl-hydroxylamine]", "values": [{"measurement": "pKa", "setting": "[1]", "result": 5.6}, {"measurement": "theoretical free base solubility", "setting": "[1]", "result": "about 0.18 mg/mL"}, {"measurement": "Active Agent · H2SO4 Concentration", "setting": "[2]; pH 2.42", "result": 104.1, "unit": "mg/mL"}, {"measurement": "Active Agent · H2SO4 Concentration", "setting": "[2]; pH 3", "result": 99.8, "unit": "mg/mL"}, {"measurement": "Active Agent · H2SO4 Concentration", "setting": "[2]; pH 3.51", "result": 101.6, "unit": "mg/mL"}, {"measurement": "Appearance after Shaking", "setting": "[2]; target pH 2.5", "result": "Clear solution"}, {"measurement": "Appearance after Shaking", "setting": "[2]; target pH 3.0", "result": "Clear solution"}, {"measurement": "Appearance after Shaking", "setting": "[2]; target pH 3.5", "result": "Clear solution"}, {"measurement": "Appearance after Shaking", "setting": "[2]; target pH 4.0", "result": "Precipitate"}, {"measurement": "Appearance after Shaking", "setting": "[2]; target pH 4.5", "result": "Precipitate"}, {"measurement": "Appearance after Shaking", "setting": "[2]; target pH 5.0", "result": "Precipitate"}, {"measurement": "Appearance after Shaking", "setting": "[2]; target pH 5.5", "result": "Precipitate"}, {"measurement": "bioavailability", "setting": "[3]", "result": 117.2, "unit": "%"}, {"measurement": "bioavailability", "setting": "[3]; Bioavailability", "result": 113, "unit": "%"}, {"measurement": "AUClast", "setting": "[3]; im, 4.8 mg/kg", "result": 2711, "unit": "ng·h/mL"}, {"measurement": "T1/2", "setting": "[3]; im, 4.8 mg/kg", "result": 2.7, "unit": "h"}, {"measurement": "AUC(0-inf)", "setting": "[3]; im, 4.8 mg/kg", "result": 2720, "unit": "ng·h/mL"}, {"measurement": "AUC(0-t)", "setting": "[3]; im, 4.8 mg/kg", "result": 2620, "unit": "ng·h/mL"}, {"measurement": "Cmax", "setting": "[3]; im, 4.8 mg/kg", "result": 466, "unit": "ng/mL"}, {"measurement": "half-life", "setting": "[3]; im, 4.8 mg/kg", "result": 3.2, "unit": "h"}, {"measurement": "Tmax", "setting": "[3]; im, 4.8 mg/kg", "result": 0.5, "unit": "h"}, {"measurement": "AUC(0-inf)", "setting": "[3]; iv, 4.8 mg/kg", "result": 2320, "unit": "ng·h/mL"}, {"measurement": "AUC(0-t)", "setting": "[3]; iv, 4.8 mg/kg", "result": 2310, "unit": "ng·h/mL"}, {"measurement": "bioavailability", "setting": "[3]; iv, 4.8 mg/kg, Bioavailability", "result": 100, "unit": "%"}, {"measurement": "Cmax", "setting": "[3]; iv, 4.8 mg/kg", "result": 2820, "unit": "ng/mL"}, {"measurement": "concentration at 0.083 hr", "setting": "[3]; [4]", "result": 2820, "unit": "ng/mL"}, {"measurement": "concentration at 0.167 hr", "setting": "[3]; [4]", "result": 2010, "unit": "ng/mL"}, {"measurement": "concentration at 0.25 hr", "setting": "[3]; [4]", "result": 1500, "unit": "ng/mL"}, {"measurement": "concentration at 0.5 hr", "setting": "[3]; [4]", "result": 1020, "unit": "ng/mL"}, {"measurement": "concentration at 1 hr", "setting": "[3]; [4]", "result": 519, "unit": "ng/mL"}, {"measurement": "concentration at 2 hr", "setting": "[3]; [4]", "result": 186, "unit": "ng/mL"}, {"measurement": "concentration at 4 hr", "setting": "[3]; [4]", "result": 40, "unit": "ng/mL"}, {"measurement": "concentration at 24 hr", "setting": "[3]; [4]", "result": 0.8, "unit": "ng/mL"}, {"measurement": "half-life", "setting": "[3]; iv, 4.8 mg/kg", "result": 3, "unit": "h"}, {"measurement": "Tmax", "setting": "[3]; iv, 4.8 mg/kg", "result": 0.083, "unit": "h"}]}]}
